Experimental data from PubChem BioAssay AID248 (DTP/NCI, 2004).
Where “and” joins values, the source holds several entries; their conditions need not be identical. Identical values can stand only once. Toxic doses and inconclusive results are not listed. No stated cut-off is given here; in the data, active means T/C of 150% or more; inactive means T/C below 125%.

Test system: L1210 leukemia ip in BDF1 mice, survival T/C
Assay: NCI In Vivo Anticancer Drug Screen. Data for tumor model L1210 Leukemia (intraperitoneal) in B6D2F1 (BDF1) mice
Details: endpoint: mean survival time, higher = longer survival
How it was run: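 Transplantable tumor model; survival measured in treated vs vehicle control mice. Value = treated/control.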

[1] = dose: 75.0 mg/kg/injection, schedule: Q01DX001 (ip), vehicle: saline
[2] = dose: 100.0 mg/kg/injection, schedule: Q01DX009 (ip), vehicle: saline with Tween-80
[3] = dose: 100.0 mg/kg/injection, schedule: Q04DX003 (ip), vehicle: saline with Tween-80
[4] = dose: 200.0 mg/kg/injection, schedule: Q01DX009 (ip), vehicle: saline with Tween-80
[5] = dose: 200.0 mg/kg/injection, schedule: Q04DX003 (ip), vehicle: saline with Tween-80
[6] = dose: 400.0 mg/kg/injection, schedule: Q04DX003 (ip), vehicle: saline with Tween-80
[7] = dose: 100.0 mg/kg/injection, schedule: Q01DX001 (ip), vehicle: saline
[8] = dose: 200.0 mg/kg/injection, schedule: Q01DX001 (ip), vehicle: saline
[9] = dose: 100.0 mg/kg/injection, schedule: Q04DX003 (ip), vehicle: other
[10] = dose: 200.0 mg/kg/injection, schedule: Q04DX003 (ip), vehicle: other
[11] = dose: 400.0 mg/kg/injection, schedule: Q04DX003 (ip), vehicle: other

Measured: T/C

Cc1c2[n+](cc3ccccc13)C(C)CC(=O)N2 (stereo not drawn)
inactive: dose: 18.75 mg/kg/injection, schedule: Q01DX009 (ip), vehicle: saline 95 % of control | dose: 37.5 mg/kg/injection, schedule: Q01DX009 (ip), vehicle: saline 95 % of control | dose: 37.5 mg/kg/injection, schedule: Q04DX003 (ip), vehicle: saline 97 % of control | [1] 100 % of control | dose: 75.0 mg/kg/injection, schedule: Q01DX009 (ip), vehicle: saline 94 % of control | dose: 75.0 mg/kg/injection, schedule: Q04DX003 (ip), vehicle: saline 101 % of control | dose: 150.0 mg/kg/injection, schedule: Q01DX001 (ip), vehicle: saline 94 % of control | dose: 150.0 mg/kg/injection, schedule: Q04DX003 (ip), vehicle: saline 104 % of control

FC(F)(F)c1ccc(C2=Nc3cccc4cccc(c34)N2)cc1
inactive: dose: 15.0 mg/kg/injection, schedule: Q01DX Z (ip), vehicle: saline 105 % of control | dose: 30.0 mg/kg/injection, schedule: Q01DX Z (ip), vehicle: saline 112 % of control | dose: 60.0 mg/kg/injection, schedule: Q01DX Z (ip), vehicle: saline 110 % of control | dose: 120.0 mg/kg/injection, schedule: Q01DX Z (ip), vehicle: saline 98 % of control | dose: 120.0 mg/kg/injection, schedule: Q01DX Z (oral), vehicle: saline 105 % of control | dose: 240.0 mg/kg/injection, schedule: Q01DX Z (ip), vehicle: saline 97 % of control | dose: 240.0 mg/kg/injection, schedule: Q01DX Z (oral), vehicle: saline 118 % of control | dose: 480.0 mg/kg/injection, schedule: Q01DX Z (ip), vehicle: saline 86 % of control | dose: 480.0 mg/kg/injection, schedule: Q01DX Z (oral), vehicle: saline 106 % of control | dose: 960.0 mg/kg/injection, schedule: Q01DX Z (oral), vehicle: saline 91 % of control

Cc1c2cnccc2c(C)c2c1c1ccccc1n2CCOC(=O)c1ccccc1
inactive: dose: 50.0 mg/kg/injection, schedule: Q01DX009 (ip), vehicle: saline with Tween-80 88 % of control | [2] 98 % of control and 88 % of control | [3] 100 % of control | [4] 93 % of control | [5] 97 % of control | dose: 400.0 mg/kg/injection, schedule: Q01DX009 (ip), vehicle: saline with Tween-80 95 % of control | [6] 91 % of control

CCCCCCCCCCCCCCCC[N+]1(C)CCOCC1
inactive: dose: 50.0 mg/kg/injection, schedule: Q01DX009 (ip), vehicle: Klucel (hydroxypropylcellulose) (HPC) 114 % of control | dose: 100.0 mg/kg/injection, schedule: Q01DX009 (ip), vehicle: Klucel (hydroxypropylcellulose) (HPC) 93 % of control

CN1CCC23c4c5ccc(O)c4OC2C(=O)CCC3C1C5 (stereo not drawn)
inactive: [1] 95 % of control

Cc1ccc(Nc2nc(N)nc(N)c2N=O)cc1
inactive: dose: 25.0 mg/kg/injection, schedule: Q01DX Z (ip), vehicle: methylcellulose (MC) 101 % of control | dose: 50.0 mg/kg/injection, schedule: Q01DX Z (ip), vehicle: methylcellulose (MC) 90 % of control

O=C(O)C1C=CCC(C(=O)O)C1 (stereo not drawn)
inactive: dose: 100.0 mg/kg/injection, schedule: Q04DX003 (ip), vehicle: saline 98 % of control | dose: 200.0 mg/kg/injection, schedule: Q04DX003 (ip), vehicle: saline 108 % of control | dose: 400.0 mg/kg/injection, schedule: Q04DX003 (ip), vehicle: saline 95 % of control

Fc1cccc(CSC(=S)Nc2ccc(Cl)c(Cl)c2)c1
inactive: dose: 50.0 mg/kg/injection, schedule: Q04DX003 (ip), vehicle: saline with Tween-80 101 % of control | [3] 104 % of control

NNC(=O)C(N)Cc1ccccc1 (stereo not drawn)
inactive: [7] 101 % of control | [8] 105 % of control

O=C(CCCc1ccc(N(CCCl)CCCl)cc1)Nc1ccccc1
inactive: dose: 4.0 mg/kg/injection, schedule: Q12HX018 (ip), vehicle: Klucel (hydroxypropylcellulose) (HPC) 102 % of control | dose: 4.0 mg/kg/injection, schedule: Q12HX018 (ip), vehicle: other 103 % of control | dose: 6.0 mg/kg/injection, schedule: Q12HX018 (ip), vehicle: other 101 % of control | dose: 8.0 mg/kg/injection, schedule: Q12HX018 (ip), vehicle: Klucel (hydroxypropylcellulose) (HPC) 109 % of control | dose: 8.0 mg/kg/injection, schedule: Q12HX018 (ip), vehicle: other 103 % of control | dose: 16.0 mg/kg/injection, schedule: Q12HX018 (ip), vehicle: Klucel (hydroxypropylcellulose) (HPC) 104 % of control

CC(=Nc1ccc(Cl)cc1)Nc1ccc(Cl)cc1
inactive: dose: 62.5 mg/kg/injection, schedule: Q01DX009 (ip), vehicle: Klucel (hydroxypropylcellulose) (HPC) 92 % of control | dose: 125.0 mg/kg/injection, schedule: Q01DX009 (ip), vehicle: Klucel (hydroxypropylcellulose) (HPC) 96 % of control | dose: 250.0 mg/kg/injection, schedule: Q01DX009 (ip), vehicle: Klucel (hydroxypropylcellulose) (HPC) 100 % of control

CC(C)CC(B1OCCO1)(C1CCCCC1)C1CCCCC1
inactive: [2] 107 % of control | [9] 105 % of control | [4] 93 % of control | [10] 104 % of control | [11] 110 % of control

COc1ccc2c(c1OC)-c1c3c(cc4c1C(C2)N(C)CC4)OCO3 (stereo not drawn)
inactive: [7] 98 % of control | [8] 101 % of control | dose: 400.0 mg/kg/injection, schedule: Q01DX001 (ip), vehicle: saline 96 % of control

Clc1ccc(C(c2ccccc2Cl)C(Cl)Cl)cc1 (stereo not drawn)
inactive: dose: 62.5 mg/kg/injection, schedule: Q01DX009 (sc), vehicle: steriod suspending solution 98 % of control and 101 % of control | dose: 62.5 mg/kg/injection, schedule: Q01DX010 (sc), vehicle: saline 91 % of control | dose: 62.5 mg/kg/injection, schedule: Q01DX010 (sc), vehicle: steriod suspending solution 102 % of control | dose: 125.0 mg/kg/injection, schedule: Q01DX009 (sc), vehicle: steriod suspending solution 98 % of control and 103 % of control | dose: 125.0 mg/kg/injection, schedule: Q01DX010 (sc), vehicle: saline 102 % of control | dose: 125.0 mg/kg/injection, schedule: Q01DX010 (sc), vehicle: steriod suspending solution 98 % of control | dose: 250.0 mg/kg/injection, schedule: Q01DX009 (sc), vehicle: steriod suspending solution 97 % of control and 100 % of control | dose: 250.0 mg/kg/injection, schedule: Q01DX010 (sc), vehicle: saline 91 % of control | dose: 250.0 mg/kg/injection, schedule: Q01DX010 (sc), vehicle: steriod suspending solution 102 % of control | dose: 500.0 mg/kg/injection, schedule: Q01DX009 (sc), vehicle: steriod suspending solution 97 % of control and 101 % of control | dose: 500.0 mg/kg/injection, schedule: Q01DX010 (sc), vehicle: saline 94 % of control | dose: 500.0 mg/kg/injection, schedule: Q01DX010 (sc), vehicle: steriod suspending solution 98 % of control

CCOC(=O)Nc1cc(N(C)CC(O)CN(C)c2ccccc2)c([N+](=O)[O-])c(N)n1 (stereo not drawn)
inactive: dose: 100.0 mg/kg/injection, schedule: Q01DX001 (ip), vehicle: Klucel (hydroxypropylcellulose) (HPC) 101 % of control | dose: 200.0 mg/kg/injection, schedule: Q01DX001 (ip), vehicle: Klucel (hydroxypropylcellulose) (HPC) 104 % of control | dose: 400.0 mg/kg/injection, schedule: Q01DX001 (ip), vehicle: Klucel (hydroxypropylcellulose) (HPC) 97 % of control

CCCCCCCCCCCCCCCCCC[N+](CCCC)(CCCC)CCCCCCCCCCCCCCCCCC (tested in a mixture with another compound)
inactive: dose: 100.0 mg/kg/injection, schedule: Q01DX001 (ip), vehicle: other 93 % of control | dose: 200.0 mg/kg/injection, schedule: Q01DX001 (ip), vehicle: other 90 % of control

COc1ccccc1NCS(=O)(=O)O
inactive: [3] 98 % of control | [5] 102 % of control | [6] 100 % of control

COC(=O)C1=C(C(=O)OC)C2(C)C=CC1O2 (stereo not drawn)
inactive: dose: 3.12 mg/kg/injection, schedule: Q01DX009 (ip), vehicle: saline with Tween-80 98 % of control | dose: 6.25 mg/kg/injection, schedule: Q01DX009 (ip), vehicle: saline with Tween-80 93 % of control | dose: 12.5 mg/kg/injection, schedule: Q01DX009 (ip), vehicle: saline with Tween-80 98 % of control and 105 % of control | dose: 25.0 mg/kg/injection, schedule: Q01DX009 (ip), vehicle: saline with Tween-80 106 % of control

CCCC(=O)CC(=O)C(F)(F)F.CCCC(=O)CC(=O)C(F)(F)F.CCCC(=O)CC(=O)C(F)(F)F.[Er]
inactive: dose: 100.0 mg/kg/injection, schedule: Q01DX009 (ip), vehicle: other 104 % of control | [9] 110 % of control | dose: 200.0 mg/kg/injection, schedule: Q01DX009 (ip), vehicle: other 106 % of control | [10] 107 % of control | [11] 108 % of control
